Test results published in patent US20220298135A1, “5-HETEROARYL-PYRIDIN-2-AMINE COMPOUNDS AS NEUROPEPTIDE FF RECEPTOR ANTAGONISTS” (Domain Therapeutics, priority 2019, published 2022).

Key:
[1] = tested on: morphine-induced hyperalgesia; test: Morphine-induced hyperalgesia model in the mouse (tail immersion test); type: in vivo; conditions: 10 mg/kg s.c.; morphine 10 mg/kg s.c. daily during 8 days; male C57/B16N mice; tail immersion test 47° C.
Experimental: This method, which detects opioid-induced hyperalgesia, follows those well-known by one skilled in the art and described in the literature (Elhabazi K et al., J Vis Exp. 2014; (89):e51264). The procedure applied to the compounds of the invention is as follows:
Nociceptive thresholds are assessed using the tail immersion test (TIT). After TIT, mice are treated daily during 8 consecutive days with morphine (10 mg/kg, sub-cutaneous s.c.) +/− tested compounds (10 mg/kg, s.c.) 20 min before morphine injection for example 31 and 32 and twice a day for examples 56 and 143 (20 min before morphine injection, and in the afternoon).
Mice used were male C57/B16N 8 weeks old at the beginning of the experiment. During TIT the tail of the animal is immersed two-thirds in a water bath at 47° C. and the withdrawal latency is recorded in seconds. The cutoff is 25 seconds, to avoid tissue damage. After TIT mice received an injection depending on their group then are replaced to their home cages.
FIGS. 1A and 1B show the mean time of tail withdrawal latency in each group of animals. The anti-hyperalgesia effect of the tested compounds was compared to vehicle-treated group using ANOVA test followed by the Bonferroni's test.

[2] = molecular target: T1, human NPFFR1 (hNPFFR1) receptor (Homo sapiens, UniProt Q9GZQ6); test: Human NPFFR1 evaluation using BRET biosensors (antagonist IC50); type: cell-based; conditions: hNPFFR1 transiently over-expressed in HEK-293 T cells; BRET signal; stimulation by EC80 RFRP-3
T1 construct: expressed in transfected cells; host or cells: HEK-293 T cells, transient co-transfection with polyethylenimine
Method in brief: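 HEK-293T cells co-transfected with receptor, GαoB and Gi-effector BRET biosensor pair, assayed 48 h later. Compound 10 min, then EC80 RFRP-3 with 10 min luminescence read; IC50 from 20-concentration variable-slope fit, duplicate, two independent experiments.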

[3] = tested on: hyperalgesia induced by the repeated administration of opiate analgesics; conditions: administered in vivo in the rat; cited from earlier work

T1 sequence (Q9GZQ6 whole entry): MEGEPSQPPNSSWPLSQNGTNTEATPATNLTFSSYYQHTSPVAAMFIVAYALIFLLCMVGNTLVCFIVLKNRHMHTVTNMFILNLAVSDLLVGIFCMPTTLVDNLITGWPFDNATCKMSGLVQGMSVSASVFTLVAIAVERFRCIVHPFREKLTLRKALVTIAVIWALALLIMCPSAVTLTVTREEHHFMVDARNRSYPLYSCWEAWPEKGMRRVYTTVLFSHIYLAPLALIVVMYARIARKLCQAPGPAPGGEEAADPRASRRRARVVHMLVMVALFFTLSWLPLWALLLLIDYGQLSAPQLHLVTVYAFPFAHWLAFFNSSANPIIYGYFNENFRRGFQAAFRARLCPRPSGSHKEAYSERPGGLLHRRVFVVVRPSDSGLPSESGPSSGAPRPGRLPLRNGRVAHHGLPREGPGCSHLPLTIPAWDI

| Compound | melting point [°C] | blockade of morphine-induced hyperalgesia (tail withdrawal latency) [1] | IC50 [2] [nM] | antihyperalgesic activity [3] |
| --- | --- | --- | --- | --- |
| Cl.Nc1ccc(-c2cccc3ccc(=O)[nH]c23)c(N)n1 [Example 56, 8-(2,6-diaminopyridin-3-yl)quinolin-2(1H)-one] | > 250 | significant blockade of morphine-induced hyperalgesia | < 100 | – |
| CCc1nc(N)ccc1-c1c(F)ccc2cc(F)cnc12.Cl [Example 143, 5-(3,7-difluoroquinolin-8-yl)-6-ethylpyridin-2-amine] | 245 to 250 | significant blockade of morphine-induced hyperalgesia | < 100 | – |
| Na-adamantan-1-yl-L-Arg-L-Phe-NH2 acetate [RF9] | – | – | – | antihyperalgesic activity |
